Source: patent US3933782A, “(N-Acetyl)-Pro-D-Phe-Trp-Ser-Tyr-D-Ala-Leu-Arg-Pro-NHEt and intermediates” (American Home Products Corporation, priority 1974, dated 1976)
Where a SMILES comes first, the peptide text is derived from it. [ ]: non-standard residue; d: D form. pGlu = O=C1CC[C@@H](C(=O)O)N1

What was measured:
ovulation = details: as described in Ser. No. 402,958, now U.S. Pat. No. 3,855,199; cited from earlier work
[1] = system: ovulation in mature Sprague-Dawley rats; details: same rat ovulation test; absence of or significant decrease in number of ova is the criterion
Method: The test was conducted with mature Sprague-Dawley rats, normally cycling, unanesthetized, proestrous rats. On the afternoon of proestrous, each rat in the test group received six subcutaneous injections of the acetate salt of formula I in corn oil, each injection being given a half hour following the previous injection. The rats are sacrificed the next morning and the number of animals ovulating and the number of ova shed are recorded following the procedure described by E. S. France, Neuroendocrinology 6, pp 77-89 (1970). The absence of or a significant decrease in the number of ova is the criterion for an anti-ovulation effect.

| Molecule | anti-ovulatory activity (result in words) (ovulation) | antiovulatory activity (result in words) [1] |
| --- | --- | --- |
| [D-Phe^2 -D-Ala^6 ]-LRF | having anti-ovulatory activity |  |
| CCNC(=O)[C@@H]1CCCN1C(=O)[C@H](CCCNC(=N)N)NC(=O)[C@H](CC(C)C)NC(=O)[C@@H](C)NC(=O)[C@H](Cc1ccc(O)cc1)NC(=O)[C@H](CO)NC(=O)[C@H](Cc1c[nH]c2ccccc12)NC(=O)[C@@H](Cc1ccccc1)NC(=O)[C@@H]1CCC(=O)N1 [p-Glu-D-Phe-Trp-Ser-Tyr-D-Ala-Leu-Arg-Pro-NHEt] ([pGlu][dF]WSY[dA]LRP-NHEt) |  | devoid of antiovulatory activity |
